Read-outs that look alike come from different tables or passages of the source.
Assays:
hGIPR = target: T1, hGIPR (Homo sapiens, UniProt P48546); experiment: Functional cAMP formation (HTRF) in HEK-293 clonal cells expressing hGIPR, 0.1% bovine casein, without or with 1.0% human serum albumin; type: cell-based; details: for Emax: percent of maximal response to GIP(1-42)NH2; for EC50: cAMP, 0.1% bovine casein (no human serum albumin), geometric mean
T1 construct: expressed in transfected cells
T1 sequence (P48546 22-466): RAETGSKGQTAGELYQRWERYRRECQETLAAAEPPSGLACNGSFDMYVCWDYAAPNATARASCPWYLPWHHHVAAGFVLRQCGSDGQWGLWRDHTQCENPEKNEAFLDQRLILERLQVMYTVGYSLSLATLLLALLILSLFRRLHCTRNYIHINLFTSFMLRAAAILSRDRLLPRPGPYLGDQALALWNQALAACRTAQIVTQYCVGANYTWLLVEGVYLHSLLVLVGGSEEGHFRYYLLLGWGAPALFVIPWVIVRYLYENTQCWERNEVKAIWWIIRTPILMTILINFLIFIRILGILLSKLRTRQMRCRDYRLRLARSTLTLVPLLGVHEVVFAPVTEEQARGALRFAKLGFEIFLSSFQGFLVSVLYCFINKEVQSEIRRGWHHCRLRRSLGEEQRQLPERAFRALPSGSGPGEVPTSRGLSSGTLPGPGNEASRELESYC
Summary of the method: (§1)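 Cells were stimulated with peptide for 30 min at 37° C, then intracellular cAMP was measured by competitive HTRF (665/620 nm ratio) and converted to nM using a cAMP standard curve. Relative EC50 and Emax came from four-parameter logistic fits of percent maximal response against peptide concentration.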

hGLP-1R = hGLP-1R (Homo sapiens, UniProt P43220); experiment: Functional cAMP formation (HTRF) in HEK-293 clonal cells expressing hGLP-1R, 0.1% bovine casein, without or with 1.0% human serum albumin; type: cell-based; set-up: expressed in transfected cells; details: for Emax: percent of maximal response to GLP-1(7-36)NH2; for EC50: cAMP, 0.1% bovine casein (no human serum albumin), geometric mean
Summary of the method: as §1

hGCGR = target: T2, hGCGR (Homo sapiens, UniProt P47871); experiment: Functional cAMP formation (HTRF) in HEK-293 clonal cells expressing hGCGR, 0.1% bovine casein, without or with 1.0% human serum albumin; type: cell-based; details: cAMP, 37° C.
T2 construct: expressed in transfected cells
Summary of the method: as §1

[1] = target: T3, human GIP receptor (hGIPR) (Homo sapiens, UniProt P48546); experiment: [125I]-GIP binding, SPA with membranes of CHO cells expressing hGIPR
T3 construct: expressed in transfected cells; crude membranes
T3 sequence (P48546 22-466): T1 sequence (P48546 22-466)
Protocol: Two methods are used for the preparation of crude cell membranes.
Method 1: Frozen cell pellets are lysed on ice in hypotonic buffer containing 50 mM Tris HCl, pH 7.5, and Roche Complete™ Protease Inhibitors with EDTA. […] The homogenate is centrifuged at 4° C. at 1100 × g for 10 minutes. The supernatant is collected and stored on ice while the pellets are resuspended in homogenization buffer and rehomogenized as described above. The homogenate is centrifuged at 1100 × g for 10 minutes. The second supernatant is combined with the first supernatant and centrifuged at 35000 × g for 1 hour at 4° C. The resulting membrane pellet is resuspended in homogenization buffer containing protease inhibitors at approximately 1 to 3 mg/mL, quick frozen in liquid nitrogen and stored as aliquots in a -80° C. freezer until use.
The homogenate is centrifuged at 4° C. at 1800 × g for 15 minutes. The supernatant is collected and stored on ice while the pellets are resuspended in homogenization buffer (without DNAse I) and rehomogenized as described above. The homogenate is centrifuged at 1800 × g for 15 minutes. The second supernatant is combined with the first supernatant and centrifuged an additional time at 1800 × g for 15 minutes. The overall supernatant is then centrifuged at 25000 × g for 30 minutes at 4° C. The resulting membrane pellet is resuspended in homogenization buffer (without DNAse I) containing protease inhibitors at approximately 1 to 3 mg/mL and stored as aliquots in a -80° C. freezer until use.
The binding buffer contains 25 mM HEPES, pH 7.4, 2.5 mM CaCl2, 1 mM MgCl2, 0.1% (w/v) bacitracin, 0.003% (w/v) TWEEN®-20, and Roche Complete™ Protease Inhibitors without EDTA. Peptides and GIP are thawed and 3 fold serially diluted in 100% DMSO (10 point concentration response curves). […] Plates are sealed and mixed on a plate shaker (setting 6) for 1 minute and read with a PerkinElmer Trilux MicroBeta® scintillation counter after 2.5 to 12 hours of incubation/settling time at room temperature.
Raw CPM data for concentration curves of peptides, Gcg, GLP-1, or GIP are converted to percent inhibition by subtracting nonspecific binding (binding in the presence of excess unlabeled Gcg, GLP-1, or GIP, respectively) from the individual CPM values and dividing by the total binding signal, also corrected by subtracting nonspecific binding. Data are analyzed using four-parameter (curve maximum, curve minimum, IC50, Hill slope) nonlinear regression routines (Genedata Screener, version 12.0.4, Genedata AG, Basal, Switzerland). […] Values for Ki are reported as the geometric mean, with error expressed as the standard error of the mean (SEM) and n is equal to the number of independent replicates (determined in assays performed on different days). Geometric Means are calculated as follows: […]
The Ki Ratio (Ki for native control peptide/Ki for test compound) at each receptor and each species is calculated. The Ki Ratio is a rapid indication of the apparent affinity of a peptide compared to the native control peptide.
n=⅟x means that only one value out of the total number of replicates (x) is used to express the mean. SEM is only calculated when n=2 or greater non-qualified results exist. Means are expressed as GeoMetric means with the standard error of the mean (SEM) and the number of replicates (n) indicated in parenthesis.

[2] = HEK293, read-out: hGIPR Emax, % ± SEM, cAMP, 37° C., 0.1% bovine casein and 1.0% human serum albumin
[3] = HEK293, read-out: hGIPR Emax, % ± SEM, cAMP, 37° C., 0.1% bovine casein, arithmetic mean
[4] = hGIPR EC50, nM (SEM, n), 37° C.
[5] = hGLP-1R EC50, nM (SEM, n), 37° C.
[6] = hGCGR EC50, nM (SEM, n), 0.1% bovine casein (no human serum albumin), geometric mean
[7] = hGCGR EC50, nM (SEM, n), 0.1% bovine casein and 1.0% human serum albumin, geometric mean (SEM, n)

hGLP-1R, sequence (P43220 24-463): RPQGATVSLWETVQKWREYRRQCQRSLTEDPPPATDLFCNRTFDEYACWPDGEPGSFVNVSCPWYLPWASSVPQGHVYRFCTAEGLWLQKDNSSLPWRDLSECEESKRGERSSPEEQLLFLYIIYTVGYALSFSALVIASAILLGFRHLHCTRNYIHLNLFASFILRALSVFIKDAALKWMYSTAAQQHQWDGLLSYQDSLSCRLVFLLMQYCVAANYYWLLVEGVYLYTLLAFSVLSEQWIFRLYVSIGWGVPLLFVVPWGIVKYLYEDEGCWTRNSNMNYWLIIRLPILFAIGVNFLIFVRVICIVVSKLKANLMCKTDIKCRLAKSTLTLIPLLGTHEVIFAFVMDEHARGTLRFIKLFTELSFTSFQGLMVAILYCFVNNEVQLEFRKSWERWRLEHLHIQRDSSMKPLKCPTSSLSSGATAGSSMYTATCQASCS
T2 sequence (P47871 26-477): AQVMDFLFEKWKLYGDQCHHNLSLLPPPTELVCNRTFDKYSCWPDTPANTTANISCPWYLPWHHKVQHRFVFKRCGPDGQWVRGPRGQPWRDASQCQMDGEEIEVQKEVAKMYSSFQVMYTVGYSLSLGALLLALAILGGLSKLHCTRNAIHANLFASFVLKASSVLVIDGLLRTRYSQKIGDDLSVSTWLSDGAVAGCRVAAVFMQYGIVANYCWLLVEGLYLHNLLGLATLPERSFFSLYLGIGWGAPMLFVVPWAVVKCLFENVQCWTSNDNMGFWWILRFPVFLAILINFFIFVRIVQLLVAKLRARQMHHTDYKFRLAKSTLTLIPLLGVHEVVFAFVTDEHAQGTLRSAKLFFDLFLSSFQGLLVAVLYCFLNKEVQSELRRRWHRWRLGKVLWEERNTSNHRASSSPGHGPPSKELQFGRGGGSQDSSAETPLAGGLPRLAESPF

SMILES	Emax (hGIPR; HEK293, cAMP, 37° C., 0.1% bovine casein and 1.0% human serum albumin, read-out: hGIPR Emax, % ± SEM) [%]	Emax (hGIPR; HEK293, cAMP, 37° C., 0.1% bovine casein, arithmetic mean, read-out: hGIPR Emax, % ± SEM) [%]	EC50 (hGIPR; 37° C., read-out: hGIPR EC50, nM (SEM, n)) [nM]	Emax (hGLP-1R; HEK293, cAMP, 37° C., 0.1% bovine casein and 1.0% human serum albumin, read-out: hGLP-1R Emax, % ± SEM) [%]	EC50 (hGLP-1R; 37° C., read-out: hGLP-1R EC50, nM (SEM, n)) [nM]	EC50 (hGCGR; 0.1% bovine casein (no human serum albumin), geometric mean, read-out: hGCGR EC50, nM (SEM, n)) [nM]	EC50 (hGCGR; 0.1% bovine casein and 1.0% human serum albumin, geometric mean (SEM, n), read-out: hGCGR EC50, nM (SEM, n)) [nM]	Ki ([1]; human GIPR, geometric mean (SEM, n), read-out: Binding Affinity Ki, nM (SEM, n) hGIPR) [nM]	Emax (hGIPR; [2]) [%]	Emax (hGIPR; [3]) [%]	EC50 (hGIPR; [4]) [nM]	EC50 (hGLP-1R; [5]) [nM]	EC50 (hGCGR; [6]) [nM]	EC50 (hGCGR; [7]) [nM]	Ki [1] [nM]	Emax (hGLP-1R; HEK293, read-out: hGLP-1R Emax, % ± SEM, cAMP, 37° C., 0.1% bovine casein, arithmetic mean) [%]
CC[C@H](C)[C@H](NC(=O)[C@H](CC(C)C)NC(=O)[C@](C)(Cc1ccc(O)cc1)NC(=O)[C@@H](CCC(=O)O)NC(=O)[C@@H](NC(=O)[C@H](Cc1ccccc1)NC(=O)[C@H](CCC(=O)O)NC(=O)C(C)(C)NC(=O)[C@H](CCC(N)=O)NC(=O)[C@H](C)NC(=O)[C@H](CCCCNC(=O)COCCOCCNC(=O)CCCCCCCNC(=O)CCCCCCCCCCCCC(=O)O)NC(=O)[C@H](CCCN)NC(=O)[C@H](CC(=O)O)NC(=O)[C@H](CC(C)C)NC(=O)[C@](C)(CC(C)C)NC(=O)[C@@H](NC(=O)C(C)(C)NC(=O)[C@H](Cc1ccncc1)NC(=O)[C@H](CC(=O)O)NC(=O)[C@H](CO)NC(=O)[C@@H](NC(=O)[C@](C)(Cc1ccccc1F)NC(=O)[C@@H](NC(=O)CNC(=O)[C@H](CCC(=O)O)NC(=O)C(C)(C)NC(=O)[C@@H](N)Cc1ccc(O)cc1)[C@@H](C)O)[C@@H](C)O)[C@@H](C)CC)[C@@H](C)CC)C(=O)N[C@@H](CCCCNC(=O)COCCOCCNC(=O)CCCCCCCNC(=O)CCCCCCCCCCCCC(=O)O)C(=O)NCC(=O)NCC(=O)N1CCC[C@H]1C(=O)N[C@@H](CO)C(=O)N[C@@H](CO)C(=O)NCC(=O)N[C@@H](C)C(=O)N1CCC[C@H]1C(=O)N1CCC[C@H]1C(=O)N1CCC[C@H]1C(=O)N[C@@H](CO)C(N)=O [Example 465]	94.4	94.9	0.0174	93.3	0.413	> 9950	> 9950	0.0464								
CC[C@H](C)[C@H](NC(=O)[C@H](CC(C)C)NC(=O)[C@](C)(Cc1ccc(O)cc1)NC(=O)[C@H](CCCCNC(=O)COCCOCCNC(=O)COCCOCCNC(=O)CC[C@H](NC(=O)CCCCCCCCCOc1ccc(C(=O)O)cc1)C(=O)O)NC(=O)[C@@H](NC(=O)[C@H](Cc1ccccc1)NC(=O)[C@H](CCC(=O)O)NC(=O)C(C)(C)NC(=O)[C@H](CCC(N)=O)NC(=O)[C@H](C)NC(=O)[C@H](CCC(N)=O)NC(=O)[C@H](CCCN)NC(=O)[C@H](CC(=O)O)NC(=O)[C@H](CC(C)C)NC(=O)[C@](C)(CC(C)C)NC(=O)[C@@H](NC(=O)C(C)(C)NC(=O)[C@H](Cc1ccncc1)NC(=O)[C@H](CC(=O)O)NC(=O)[C@H](CO)NC(=O)[C@@H](NC(=O)[C@](C)(Cc1ccccc1F)NC(=O)[C@@H](NC(=O)CNC(=O)[C@H](CCC(=O)O)NC(=O)C(C)(C)NC(=O)[C@@H](N)Cc1ccc(O)cc1)[C@@H](C)O)[C@@H](C)O)[C@@H](C)CC)[C@@H](C)CC)C(=O)N[C@@H](CCCCNC(=O)COCCOCCNC(=O)COCCOCCNC(=O)CC[C@H](NC(=O)CCCCCCCCCOc1ccc(C(=O)O)cc1)C(=O)O)C(=O)NCC(=O)NCC(=O)N1CCC[C@H]1C(=O)N[C@@H](CO)C(=O)N[C@@H](CO)C(=O)NCC(=O)N[C@@H](C)C(=O)N1CCC[C@H]1C(=O)N1CCC[C@H]1C(=O)N1CCC[C@H]1C(=O)N[C@@H](CO)C(N)=O [Example 403]									91.7	98.1	0.00939	0.175	> 9950	> 9950	0.0375	
CC[C@H](C)[C@H](NC(=O)[C@H](CC(C)C)NC(=O)[C@](C)(Cc1ccc(O)cc1)NC(=O)[C@H](CCCCNC(=O)CCOCCOCCOCCOCCOCCOCCNC(=O)CC[C@H](NC(=O)CCCCCCCCCOc1ccc(C(=O)O)cc1)C(=O)O)NC(=O)[C@@H](NC(=O)[C@H](Cc1ccccc1)NC(=O)[C@H](CCCN)NC(=O)C(C)(C)NC(=O)[C@H](CCC(N)=O)NC(=O)[C@H](C)NC(=O)[C@H](CCC(N)=O)NC(=O)[C@H](CCCN)NC(=O)[C@H](CC(=O)O)NC(=O)[C@H](CC(C)C)NC(=O)[C@](C)(CC(C)C)NC(=O)[C@@H](NC(=O)C(C)(C)NC(=O)[C@H](Cc1ccncc1)NC(=O)[C@H](CC(=O)O)NC(=O)[C@H](CO)NC(=O)[C@@H](NC(=O)[C@](C)(Cc1ccccc1F)NC(=O)[C@@H](NC(=O)CNC(=O)[C@H](CCC(=O)O)NC(=O)C(C)(C)NC(=O)[C@@H](N)Cc1ccc(O)cc1)[C@@H](C)O)[C@@H](C)O)[C@@H](C)CC)[C@@H](C)CC)C(=O)N[C@@H](CCCCNC(=O)CCOCCOCCOCCOCCOCCOCCNC(=O)CC[C@H](NC(=O)CCCCCCCCCOc1ccc(C(=O)O)cc1)C(=O)O)C(=O)NCC(=O)NCC(=O)N1CCC[C@H]1C(=O)N[C@@H](CO)C(=O)N[C@@H](CO)C(=O)NCC(=O)N[C@@H](C)C(=O)N1CCC[C@H]1C(=O)N1CCC[C@H]1C(=O)N1CCC[C@H]1C(=O)N[C@@H](CO)C(N)=O [Example 468]									85.9	97.1	0.00991	0.168	> 10100	> 10100	0.0291	109

Reference: patent US20230265151A1, “GIP/GLP1 CO-AGONIST COMPOUNDS” (priority 2020, published 2023)
